Our source for the IC50 values is patent US10266549B2, “ULK1 inhibitors and methods using same” (SALK INSTITUTE FOR BIOLOGICAL STUDIES, priority 2014, dated 2019).

Bounds are passed on as bounds.

In the experiment the target is ULK1 (Homo sapiens (Human), UniProt O75385). Put plainly: ULK1 inhibition assay (Table 1). Type of experiment: biochemical. Conditions: * = tested as a mixture of regioisomers.
Sequence of ULK1 (O75385 whole entry, species assumed): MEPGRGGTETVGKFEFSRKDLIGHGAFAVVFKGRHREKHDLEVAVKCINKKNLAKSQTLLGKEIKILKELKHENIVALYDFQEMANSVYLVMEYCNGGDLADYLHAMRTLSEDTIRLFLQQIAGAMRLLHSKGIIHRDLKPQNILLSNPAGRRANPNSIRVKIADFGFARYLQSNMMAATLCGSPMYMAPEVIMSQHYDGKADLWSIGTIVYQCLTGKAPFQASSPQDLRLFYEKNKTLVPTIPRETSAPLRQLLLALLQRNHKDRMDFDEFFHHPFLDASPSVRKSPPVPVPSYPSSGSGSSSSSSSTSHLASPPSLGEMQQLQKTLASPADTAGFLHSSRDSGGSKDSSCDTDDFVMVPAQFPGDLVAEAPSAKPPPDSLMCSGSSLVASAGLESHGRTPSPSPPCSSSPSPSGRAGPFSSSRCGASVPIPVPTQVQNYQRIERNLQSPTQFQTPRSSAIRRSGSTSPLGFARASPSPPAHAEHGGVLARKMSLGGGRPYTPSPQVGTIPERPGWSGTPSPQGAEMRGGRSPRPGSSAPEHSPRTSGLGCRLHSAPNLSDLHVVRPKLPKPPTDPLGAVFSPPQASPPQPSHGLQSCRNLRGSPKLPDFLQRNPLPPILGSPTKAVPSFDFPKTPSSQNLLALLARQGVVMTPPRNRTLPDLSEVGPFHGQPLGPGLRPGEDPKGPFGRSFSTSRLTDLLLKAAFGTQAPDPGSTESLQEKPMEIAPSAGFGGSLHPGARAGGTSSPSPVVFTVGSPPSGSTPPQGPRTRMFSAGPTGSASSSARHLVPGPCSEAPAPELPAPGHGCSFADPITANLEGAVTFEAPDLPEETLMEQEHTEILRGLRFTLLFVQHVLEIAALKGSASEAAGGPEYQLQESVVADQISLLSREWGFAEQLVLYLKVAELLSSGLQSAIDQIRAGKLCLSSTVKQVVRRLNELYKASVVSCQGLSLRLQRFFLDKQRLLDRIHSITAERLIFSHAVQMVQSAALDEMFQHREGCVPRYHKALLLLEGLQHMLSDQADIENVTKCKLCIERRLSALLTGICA

Broadly, the IC50 is the concentration needed to halve the response being measured. Take `CNC(=O)c1ccccc1Nc1nc(Nc2ccccc2Cl)ncc1Cl` [compound 74, 2-(5-Chloro-2-(2-chlorophenylamino)pyrimidin-4-ylamino)-N-methylbenzamide]: the IC50 was 200 to 2000 nM.
As for `CNS(=O)(=O)c1ccccc1Nc1nc(Nc2ccc(N3CCOCC3)cc2OC)ncc1Br` [compound 75, 2-(5-Bromo-2-(2-methoxy-4-morpholinophenylamino)pyrimidin-4-ylamino)-N-methylbenzenesulfonamide], the figure is 200 to 2000 nM; as for `CNC(=O)c1ccccc1Nc1nc(Nc2ccc3c(c2)CCC(=O)N3)ncc1C(F)(F)F` [compound 76, N-Methyl-2-(2-(2-oxo-1,2,3,4-tetrahydroquinolin-6-ylamino)-5-(trifluoromethyl)pyrimidin-4-ylamino)benzamide], < 200 nM.
The figure for `CNC(=O)c1ccccc1Nc1nc(Nc2cc(N3CCOCC3)cc(N3CCOCC3)c2)ncc1Cl` [compound 78, 2-(5-Chloro-2-(3,5-dimorpholinophenylamino)pyrimidin-4-ylamino)-N-methylbenzamide] is 200 to 2000 nM; for `COc1cc(N2CCOCC2)ccc1Nc1ncc(Br)c(Nc2ccccc2S(=O)(=O)N(C)C)n1` [compound 80, 2-(5-Bromo-2-(2-methoxy-4-morpholinophenylamino)pyrimidin-4-ylamino)-N—N-dimethylbenzenesulfonamide] it is < 200 nM.
As for `O=C1CCc2cc(Nc3ncc(C(F)(F)F)c(OCc4ccccc4)n3)ccc2N1` [compound 81, 6-(4-(Benzyloxy)-5-(trifluoromethyl)pyrimidin-2-ylamino)-3,4-dihydroquinolin-2(1H)-one], the figure is < 200 nM.
For `COc1c(C)cnc(CNc2nc(Nc3ccc4c(c3)CCC(=O)N4)ncc2C(F)(F)F)c1C` [compound 82, 6-((4-(((4-Methoxy-3,5-dimethylpyridin-2-yl)methyl)amino)-5-(trifluoromethyl)pyrimidin-2-yl)amino)-3,4-dihydroquinolin-2(1H)-one], the IC50 was < 200 nM.
As for `Cc1cccc(Oc2nc(Nc3ccc4c(c3)CCC(=O)N4)ncc2C(F)(F)F)c1C` [compound 83, 6-((4-(2,3-Dimethylphenoxy)-5-(trifluoromethyl)pyrimidin-2-yl)amino)-3,4-dihydroquinolin-2(1H)-one], the figure is < 200 nM; as for `CNC(=O)c1ccccc1Nc1nc(Nc2cc(OC)c(OC)c(OC)c2)ncc1CCc1ccccc1` [compound 87, N-Methyl-2-((5-phenethyl-2-((3,4,5-trimethoxyphenyl)amino)pyrimidin-4-yl)amino)benzamide], 200 to 2000 nM; as for `CNC(=O)c1ccccc1Nc1nc(Nc2ccc3c(c2)CCC(=O)N3)ncc1-c1ccccc1` [compound 89, N-Methyl-2-((2-((2-oxo-1,2,3,4-tetrahydroquinolin-6-yl)amino)-5-phenylpyrimidin-4-yl)amino)benzamide], < 200 nM.
`CNC(=O)c1ccccc1Nc1nc(Nc2cc(N3CCOCC3)cc(N3CCOCC3)c2)ncc1C(F)(F)F` [compound 90, 2-(2-(3,5-dimorpholinophenylamino)-5-(trifluoromethyl)pyrimidin-4-ylamino)-N-methylbenzamide]: the concentration for half-maximal inhibition (IC50) is < 200 nM.
As for `CNC(=O)c1ccccc1Oc1nc(Nc2cc(OC)c(OC)c(OC)c2)ncc1C(F)(F)F` [compound 92, N-Methyl-2-(5-(trifluoromethyl)-2-(3,4,5-trimethoxyphenylamino)pyrimidin-4-yloxy)benzamide], the figure is < 200 nM; as for `CNC(=O)c1ccccc1Oc1nc(Nc2ccccc2)ncc1C(F)(F)F` [compound 99, N-methyl-2-((2-(phenylamino)-5-(trifluoromethyl)pyrimidin-4-yl)oxy)benzamide], > 2000 nM; as for `CNC(=O)c1ccccc1Oc1nc(Nc2cc(Br)ccc2C)ncc1C(F)(F)F` [compound 100, 2((2-((5-bromo-2-methylphenyl)amino)-5-(trifluoromethyl)pyrimidin-4-yl)oxy)-N-methylbenzamide], > 2000 nM.
